Reference: PMC11995724, “Antibiotic target discovery by integrated phenotypic and activity-based profiling of electrophilic fragments” (Cell chemical biology, 2025)

Assay: in vitro
Settings: human, hek293t cells

Row | SMILES | viability at 48 h, 25 µM [%]
1 | N#CC(=Cc1cc(F)ccc1F)C(=O)Nc1ccc(Cl)cc1Cl [8-O08, 2-cyano-N-(2,4-dichlorophenyl)-3-(2,5-difluorophenyl)prop-2-enamide] | 68.1
2 | CCNC(=O)C(C#N)=Cc1ccc(O)c(OCC)c1 [8-O09, 2-cyano-3-(3-ethoxy-4-hydroxyphenyl)-N-ethylprop-2-enamide] | 98.9
3 | CC(C)Oc1ccc(C=C(C#N)C(=O)NC2CCCC2)cc1 [8-O10, 2-cyano-N-cyclopentyl-3-[4-(propan-2-yloxy)phenyl]prop-2-enamide] | 57.5
4 | N#CC(=Cc1ccc([N+](=O)[O-])cc1)C(=O)Nc1ccc(Cl)cc1 [8-O11, N-(4-chlorophenyl)-2-cyano-3-(4-nitrophenyl)prop-2-enamide] | 82.6
5 | CC1CN(C(=O)C(C#N)=Cc2c(Cl)cccc2Cl)CC(C)O1 (stereo not shown) [8-O12, 3-(2,6-dichlorophenyl)-2-(2,6-dimethylmorpholine-4-carbonyl)prop-2-enenitrile] | 60.2
6 | COCCNC(=O)C(C#N)=Cc1c(Cl)cccc1Cl [8-O13, 2-cyano-3-(2,6-dichlorophenyl)-N-(2-methoxyethyl)prop-2-enamide] | 55.9
7 | COc1ccc(NC(=O)C(C#N)=Cc2cccs2)cc1 [8-O14, 2-cyano-N-(4-methoxyphenyl)-3-(thiophen-2-yl)prop-2-enamide] | 75.7
8 | N#CC(=Cc1c(F)c(F)c(F)c(F)c1F)C(=O)NC1CCCCC1 [8-O15, 2-cyano-N-cyclohexyl-3-(2,3,4,5,6-pentafluorophenyl)prop-2-enamide] | 0.544
9 | N#CC(=Cc1ccc(C#N)cc1)C(=O)Nc1cccc2ccccc12 [8-O16, 2-cyano-3-(4-cyanophenyl)-N-(naphthalen-1-yl)prop-2-enamide] | 38.3
10 | COc1cccc(NC(=O)C(C#N)=Cc2ccc(O)cc2)c1 [8-O17, 2-cyano-3-(4-hydroxyphenyl)-N-(3-methoxyphenyl)prop-2-enamide] | 82.7
11 | N#CC(=CC=Cc1ccccc1)C(=O)Nc1ccc(F)c(Cl)c1 [8-O18, N-(3-chloro-4-fluorophenyl)-2-cyano-5-phenylpenta-2,4-dienamide] | 76.2
12 | N#CC(=Cc1cccc2ccccc12)C(=O)NCc1ccccc1 [8-O19, N-benzyl-2-cyano-3-(naphthalen-1-yl)prop-2-enamide] | 48
13 | Cc1cccc(C)c1NC(=O)C(C#N)=Cc1c(C)n[nH]c1C [8-O20, 2-cyano-3-(3,5-dimethyl-1H-pyrazol-4-yl)-N-(2,6-dimethylphenyl)prop-2-enamide] | 51.4
14 | COCCNC(=O)C(C#N)=Cc1c(F)cccc1Cl [8-O21, 3-(2-chloro-6-fluorophenyl)-2-cyano-N-(2-methoxyethyl)prop-2-enamide] | 94.2
15 | CCc1ccc(-c2nn(-c3ccccc3)cc2C=C(C#N)C(N)=O)cc1 [8-O22, 2-cyano-3-[3-(4-ethylphenyl)-1-phenyl-1H-pyrazol-4-yl]prop-2-enamide] | 70.6
16 | COc1cccc(NC(=O)C(C#N)=Cc2cccc(O)c2)c1 [8-P03, 2-cyano-3-(3-hydroxyphenyl)-N-(3-methoxyphenyl)prop-2-enamide] | 120
17 | N#CC(=Cc1cccc(Cl)c1Cl)C(=O)NCc1ccco1 [8-P04, 2-cyano-3-(2,3-dichlorophenyl)-N-[(furan-2-yl)methyl]prop-2-enamide] | 52.4
18 | COc1cc(C=C(C#N)C(=O)Nc2ccc(C)cc2)cc(Cl)c1O [8-P05, 3-(3-chloro-4-hydroxy-5-methoxyphenyl)-2-cyano-N-(4-methylphenyl)prop-2-enamide] | 95.6
19 | CC(C)NC(=O)C(C#N)=Cc1cccc2ccccc12 [8-P06, 2-cyano-3-(naphthalen-1-yl)-N-(propan-2-yl)prop-2-enamide] | 103

Row | SMILES | viability at 48 h, 25 µM [%]
20 | COc1ccc(C=C(C#N)C(=O)Nc2ccccc2C)cc1 [8-P07, 2-cyano-3-(4-methoxyphenyl)-N-(2-methylphenyl)prop-2-enamide] | 114
21 | COc1cc(C=C(C#N)C(N)=O)ccc1OC(F)F [8-P08, 2-cyano-3-[4-(difluoromethoxy)-3-methoxyphenyl]prop-2-enamide] | 82.2
22 | N#CC(=Cc1c(Cl)cccc1Cl)C(=O)Nc1nccs1 [8-P09, 2-cyano-3-(2,6-dichlorophenyl)-N-(1,3-thiazol-2-yl)prop-2-enamide] | 109
23 | N#CC(=Cc1ccccc1)C(=O)NCc1ccc(F)cc1 [8-P10, 2-cyano-N-[(4-fluorophenyl)methyl]-3-phenylprop-2-enamide] | 89
24 | CCc1cccc(CC)c1NC(=O)C(C#N)=Cc1ccc(C)o1 [8-P11, 2-cyano-N-(2,6-diethylphenyl)-3-(5-methylfuran-2-yl)prop-2-enamide] | 108
25 | COc1ccc2ccccc2c1C=C(C#N)C(=O)N1CCCC1 [8-P12, 3-(2-methoxynaphthalen-1-yl)-2-(pyrrolidine-1-carbonyl)prop-2-enenitrile] | 75.4
26 | Cc1ccc(C=C(C#N)C(=O)Nc2nccs2)s1 [8-P13, 2-cyano-3-(5-methylthiophen-2-yl)-N-(1,3-thiazol-2-yl)prop-2-enamide] | 109
27 | N#CC(=Cc1cccc(O)c1)C(=O)NCc1ccc(Cl)cc1 [8-P14, N-[(4-chlorophenyl)methyl]-2-cyano-3-(3-hydroxyphenyl)prop-2-enamide] | 64.4
28 | COc1ccc(C=C(C#N)C(=O)Nc2ccccc2C)cc1O [8-P15, 2-cyano-3-(3-hydroxy-4-methoxyphenyl)-N-(2-methylphenyl)prop-2-enamide] | 120
29 | CC(NC(=O)C(C#N)=Cc1ccccc1F)c1ccccc1 (stereo not shown) [8-P16, 2-cyano-3-(2-fluorophenyl)-N-(1-phenylethyl)prop-2-enamide] | 61.8
30 | CCCCNC(=O)C(C#N)=Cc1ccncc1 [8-P17, N-butyl-2-cyano-3-(pyridin-4-yl)prop-2-enamide] | 115
31 | COc1ccc2ccccc2c1C=C(C#N)C(=O)NC1CCCCC1 [8-P18, 2-cyano-N-cyclohexyl-3-(2-methoxynaphthalen-1-yl)prop-2-enamide] | 66.4
32 | Cc1ccc(C=C(C#N)C(=O)NCc2ccco2)o1 [8-P19, 2-cyano-N-[(furan-2-yl)methyl]-3-(5-methylfuran-2-yl)prop-2-enamide] | 95.3
33 | N#CC(=CC=Cc1ccccc1[N+](=O)[O-])C(=O)Nc1ccccc1 [8-P20, 2-cyano-5-(2-nitrophenyl)-N-phenylpenta-2,4-dienamide] | 48
34 | Cc1cc(C)c(C=C(C#N)C(=O)Nc2nccs2)cc1C [8-P21, 2-cyano-N-(1,3-thiazol-2-yl)-3-(2,4,5-trimethylphenyl)prop-2-enamide] | 113
35 | N#CC(=Cc1cccc(Cl)c1Cl)C(=O)Nc1ccc(F)cc1 [8-P22, 2-cyano-3-(2,3-dichlorophenyl)-N-(4-fluorophenyl)prop-2-enamide] | 92.8
36 | N#CC(=Cc1cccc(F)c1F)C(N)=O [9-A03, 2-cyano-3-(2,3-difluorophenyl)prop-2-enamide] | 115
37 | N#CC(=Cc1ccc(OC(F)F)cc1)C(=O)NC1CCCCC1 [9-A04, 2-cyano-N-cyclohexyl-3-[4-(difluoromethoxy)phenyl]prop-2-enamide] | 66.2
